Data: US20070207946A1, “Dipeptidyl peptidase IV inhibitors and their uses for lowering blood pressure levels” (priority 2001, published 2007)
Where a name gives a salt, the structure may show the parent alone. Read-outs that look alike come from different tables or passages of the source. Blank lines part the entries; values can stand above or below the compound they belong to.

Assays:
PepT1 [1] = biological target: T1, PepT1 (Oryctolagus cuniculus, UniProt P36836); experiment: Inhibition of binding of 3H-D-Phe-Ala to PepT1-expressing P. pastoris cells; conditions: read-out: EC50: concentration inhibiting the binding of 3H-D-Phe-Ala to PepT1-expressing P. pastoris cells by 50%
T1 sequence (P36836 1-707): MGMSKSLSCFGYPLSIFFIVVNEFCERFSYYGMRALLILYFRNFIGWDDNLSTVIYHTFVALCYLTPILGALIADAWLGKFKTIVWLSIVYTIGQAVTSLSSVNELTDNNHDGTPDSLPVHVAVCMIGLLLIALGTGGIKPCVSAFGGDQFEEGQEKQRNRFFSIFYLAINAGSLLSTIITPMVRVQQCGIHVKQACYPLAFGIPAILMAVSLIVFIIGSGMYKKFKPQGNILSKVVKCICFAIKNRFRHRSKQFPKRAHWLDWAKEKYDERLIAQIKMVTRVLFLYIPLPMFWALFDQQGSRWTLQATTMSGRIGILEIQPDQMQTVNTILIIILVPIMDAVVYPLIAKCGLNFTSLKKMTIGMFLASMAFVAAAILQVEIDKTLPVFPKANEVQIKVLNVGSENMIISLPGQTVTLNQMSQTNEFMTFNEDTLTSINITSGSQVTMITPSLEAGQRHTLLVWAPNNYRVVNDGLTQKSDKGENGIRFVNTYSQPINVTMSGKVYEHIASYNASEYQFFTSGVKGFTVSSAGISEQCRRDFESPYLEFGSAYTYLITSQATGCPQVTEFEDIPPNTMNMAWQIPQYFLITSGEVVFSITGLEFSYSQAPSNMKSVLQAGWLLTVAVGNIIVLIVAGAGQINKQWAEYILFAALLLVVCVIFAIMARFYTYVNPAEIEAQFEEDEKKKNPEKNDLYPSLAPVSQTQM
Description: (§1) Side chain-modified glutamyl thiazolidines having a structure H-Glu(X)-Thia were synthesised, with polyethylene glycol or glycine oligomers of various chain lengths being used as X (see Method A of example for description of synthesis). The binding characteristics of those derivatives and their transportability by the peptide transporter PepT1 were investigated.

Wistar-rats = experiment: Insulin and blood glucose responses to glucose after i.v. administration of inhibitor; type: in vivo, rat
Description: The test group additionally obtained an infusion of the inhibitor of 0.75 M/min over 30 min experimental time (*). The control group received during the same time interval an infusion of inhibitor-free 0.9% saline solution. At starting time t=0 all animals were administered an i.d. glucose dose of 1 g/kg 40% dextrose solution (w/v). Blood samples were collected of all test animals in 10 min time intervals. Glucose was analyzed using whole blood (Lifescan One Touch II analyzer) while DPIV-activity and insulin concentration were analyzed in plasma. […] All data are presented as mean+/−s.e.m.

[2] = test system: DPIV and DPIV-like enzymatic activity; experiment: Inhibition of the DPIV-catalyzed hydrolysis of the incretins GIP1-42 and GLP-17-36 in vitro (pooled human serum, MALDI-TOF); type: biochemical; conditions: 20 mM inhibitor; 30 mM peptide; 20% pooled serum; pH 7.6; 30° C.; 24 hours
Description: It is possible to suppress the in vitro hydrolysis of incretins caused by DPIV and DPIV-like enzymatic activity using purified enzyme or pooled human serum (FIG. 1).
Samples were cocrystallized using 2′,6′-dihydroxy-acetophenon as matrix and analyzed by MALDI-TOF-mass spectrometry. Spectra (FIG. 1) display accumulations of 250 single laser shots per sample.
In the control assays containing no inhibitor the incretins were almost completely degraded (FIGS. 1b and 1c, both bottom spectra).

PepT1 [3] = biological target: T1, PepT1; experiment: Transport characteristics at PepT1-expressing oocytes of X. leavis, two-electrode voltage clamp; type: cell-based
Description: as §1

plasma DPIV activity = biological target: T2, plasma DPIV activity (Rattus norvegicus, UniProt P14740); experiment: DPIV inhibiting activity after intravasal and oral administration to Wistar rats; type: in vivo; conditions: rat
T2 construct: from tissue; host or cells: plasma of Wistar rats
T2 sequence (P14740 38-767 limits assumed): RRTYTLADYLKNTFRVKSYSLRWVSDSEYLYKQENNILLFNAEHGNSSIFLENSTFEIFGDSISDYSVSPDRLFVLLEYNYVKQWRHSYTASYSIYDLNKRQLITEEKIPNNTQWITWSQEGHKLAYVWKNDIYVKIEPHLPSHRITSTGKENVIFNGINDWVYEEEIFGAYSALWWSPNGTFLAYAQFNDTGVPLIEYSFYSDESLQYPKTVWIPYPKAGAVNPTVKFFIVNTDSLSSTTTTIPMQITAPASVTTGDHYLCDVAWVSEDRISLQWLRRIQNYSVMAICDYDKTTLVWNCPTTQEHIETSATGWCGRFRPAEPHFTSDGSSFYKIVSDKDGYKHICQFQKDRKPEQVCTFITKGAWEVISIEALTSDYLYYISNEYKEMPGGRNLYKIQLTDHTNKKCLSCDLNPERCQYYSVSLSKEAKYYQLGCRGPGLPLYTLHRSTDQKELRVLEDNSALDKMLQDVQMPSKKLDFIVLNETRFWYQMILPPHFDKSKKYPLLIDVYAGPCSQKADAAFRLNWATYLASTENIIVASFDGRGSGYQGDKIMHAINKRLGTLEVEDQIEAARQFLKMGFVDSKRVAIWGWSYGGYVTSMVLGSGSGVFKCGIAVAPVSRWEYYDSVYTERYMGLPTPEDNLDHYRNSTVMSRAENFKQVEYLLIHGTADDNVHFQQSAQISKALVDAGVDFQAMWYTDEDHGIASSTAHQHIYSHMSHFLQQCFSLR
Description: Male Wistar rats (Shoe: Wist(Sho)) with a body weight ranging between 250 and 350 g were purchased from Tierzucht Schönwalde (Schönwalde, Germany).
Animals were single-caged under conventional conditions with controlled temperature (22±2° C.) on a 12/12 hours light/dark cycle (light on at 06:00 AM). Standard pelleted chow (ssniff® Soest, Germany) and tap water acidified with HCl were allowed ad libitum.
After ≧one week of adaptation at the housing conditions, catheters were implanted into the carotid artery of Wistar rats under general anaesthesia (i.p. injection of 0.25 ml/kg b.w. Rompun® [2%], BayerVital, Germany and 0.5 ml/kg b.w. Ketamin 10, Atarost GmbH & Co., Twistringen, Germany). The animals were allowed to recover for one week. The catheters were flushed with heparin-saline (100 IU/ml) three times per week. In case of catheter dysfunction, a second catheter was inserted into the contra-lateral carotid artery of the respective rat. After one week of recovery from surgery, this animal was reintegrated into the study. In case of dysfunction of the second catheter, the animal was withdrawn from the study. A new animal was recruited and the experiments were continued in the planned sequence, beginning at least 7 days after catheter implantation.
After overnight fasting, 100 μl samples of heparinised arterial blood were collected at −30, −5, and 0 min. […] In the case of oral administration, an additional volume of 1 ml saline was injected into the arterial catheter. In the case of infra-arterial administration, the catheter was immediately flushed with 30 μl saline and an additional 1 ml of saline was given orally via the feeding tube.
All blood samples were collected into ice cooled Eppendorf tubes (Eppendorf-Netheler-Hinz, Hamburg, Germany) filled with 10 μl 1M sodium citrate buffer (pH 3.0) for plasma DPIV activity measurement. Eppendorf tubes were centrifuged immediately (12000 rpm for 2 min, Hettich Zentrifuge EBA 12, Tuttlingen; Germany): The plasma fractions were stored on ice until analysis or were frozen at −20° C. until analysis. All plasma samples were labelled with the following data:
The assay mixture for determination of plasma DPIV activity consisted of 80 μl reagent and 20 μl plasma sample. […] The DPIV activity was expressed in mU/ml.
All parameters were analysed in a descriptive manner including mean and SD.

[4] = In vivo inactivation of glutaminyl thiazolidine after oral administration to Wistar rats; conditions: plasma LC/MS
Description: Glutaminyl thiazolidine was administered to Wistar rats orally as described in example 9.
After application of placebo or glutaminyl thiazolidine, arterial blood samples were taken at 2.5, 5, 7.5, 10, 15, 20, 40, 60 and 120 min from the carotid catheter of the conscious unrestrained rats to determine the formation of degradation products of glutaminyl thiazolidine.
For analysis, simple solid phase extraction procedure on C18 cartridges was used to isolate the compounds of interest from the plasma. The extracts were analysed using reversed-phase liquid chromatography on Lichrospher 60 RP Select B column hyphenated with tandem mass spectrometry operating in the APCI positive mode. An internal standard method was used for quantification.

[5] = biological target: T3, Prolidase from porcine kidney (Sus scrofa, UniProt A0A5G2QQV1); experiment: Cross reacting enzymes - prolidase; type: biochemical; conditions: substrate Ile-Pro-OH, pH 7.6, read-out: IC50 against prolidase
T3 construct: Prolidase from porcine kidney (ICN Biomedicals, Eschwege, Germany); purchased ICN Biomedicals, Eschwege, Germany; host or cells: porcine kidney
T3 sequence (A0A5G2QQV1 1-463): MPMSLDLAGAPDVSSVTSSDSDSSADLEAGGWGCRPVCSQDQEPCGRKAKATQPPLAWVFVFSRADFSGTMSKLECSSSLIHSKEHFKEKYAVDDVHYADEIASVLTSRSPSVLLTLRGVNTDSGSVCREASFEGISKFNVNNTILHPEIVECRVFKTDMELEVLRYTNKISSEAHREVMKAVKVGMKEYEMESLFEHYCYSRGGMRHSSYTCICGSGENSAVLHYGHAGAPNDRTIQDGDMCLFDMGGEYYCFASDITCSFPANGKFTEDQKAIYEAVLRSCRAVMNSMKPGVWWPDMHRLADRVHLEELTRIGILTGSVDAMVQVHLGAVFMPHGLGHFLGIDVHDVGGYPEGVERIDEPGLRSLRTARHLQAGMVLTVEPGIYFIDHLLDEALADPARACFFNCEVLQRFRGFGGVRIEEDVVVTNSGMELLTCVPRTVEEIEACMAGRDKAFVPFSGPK
Description: Prolidase (EC 3.4.13.9) was first described by Bergmann & Fruton (Bergmann, M. & Fruton, J S, 1937, J. Biol. Chem. 189-202). Prolidase releases the N-terminal amino acid from Xaa-Pro dipeptides and has a pH optimum between 6 and 9.
Prolidase from porcine kidney (ICN Biomedicals, Eschwege, Germany) was solved (1 mg/ml) in assay buffer (20 mM NH4(CH3COO)2, 3 mM MnCl2, pH 7.6). In order to get a fully active enzyme the solution was incubated for 60 min at room temperature.
450 μl glutaminyl pyrrolidine or glutaminyl thiazolidine in an concentration range of 5*10^−3 M-5*10^−7 M were admixed with 500 μl buffer solution (20 mM NH4(CH3COO)2, pH 7.6) and 250 μl Ile-Pro-OH (0.5 mM in the assay, mixture). The assay mixture was pre-incubated at 30° C. for 5 min. After pre-incubation, 75 μl Prolidase (1:10 diluted in assay buffer) were added and measurement was performed at 30° C. and λ=220 nm for 20 min using a UV/Vis photometer, UV1 (Thermo Spectronic, Cambridge, UK).
The IC 50-values were calculated using Graphit 4.0.15 (Erithacus Software, Ltd., UK).

[6] = test system: fatty (fa/fa) VDF Zucker rats; experiment: Chronic oral treatment of fatty Zucker rats - fasting blood glucose; type: in vivo, rat; conditions: 10 mg/kg oral gavage twice daily, 12 weeks
Description: (§2) Animals were housed singly, on a 12 hour light/dark cycle (lights on at 6 am) and allowed access to standard rat food, and water ad libitum.
Every two days, body weight, morning and evening blood glucose, and food and water intake were assessed. Blood samples for glucose determination were acquired from tail bleeds, and measured using a SureStep glucose analyzer (Lifescan Canada Ltd., Burnaby).
(§3) Every four weeks from the start of the experiment, an oral glucose tolerance test (OGTT) was performed: animals were fasted for 18 hours following the 1700 h dosing and administered 1 g/kg glucose orally.

[7] = test system: fatty (fa/fa) VDF Zucker rats; experiment: Chronic oral treatment of fatty Zucker rats - systolic blood pressure (tail-cuff); type: in vivo, rat; conditions: 10 mg/kg oral gavage twice daily
Description: as §2
Systolic blood pressure was measured weekly using the tail-cuff procedure.

F344 rats = experiment: Chronic intragastric infusion via osmotic minipumps over two weeks - blood pressure; type: in vivo, rat
Description: Reduced expression of the ectopeptidase DPIV and lack of DPIV-like activity in mutant F344 rats lacking DPIV enzymic activity and expression results in a lowered blood pressure. Mutant F344 substrains lacking DPIV enzymic activity and wild-type-like F344 were tested.

Circulating half-life = type: in vivo; conditions: 18 hours following dosing
Description: as §3

EC50 (PepT1 [1]): 980 µM | suppression of the enzyme-catalyzed hydrolysis of GIP1-42 and GLP-17-36 [2]: complete suppression | Imax, inward currents generated by the transport (PepT1 [3]): 25 ± 8 nA
Structure (SMILES): CCC(C)C(N)C(=O)N1CCSC1 (centres unmarked) [isoleucyl thiazolidine]
circulating glucose concentration after intraduodenal (i.d.) glucose (Wistar-rats; 0.1 mg per kg, versus untreated controls): more rapid reduction | effect on circulating glucose after i.v. administration of the same amount of glucose (Wistar-rats; inhibitor-treated): no comparable effect

inhibition at 100 mg/kg (plasma DPIV activity; iv, intra-vasal (intra-arterial) route, read-out: in vivo DPIV-inhibition at tmax, i.v.): 88% | inhibition at 100 mg/kg (plasma DPIV activity; oral, read-out: in vivo DPIV-inhibition at tmax, p.o.): 71% | degradation of the compound in vivo [4]: degradation of the compound was found | degradation product [4]: pyroglutaminyl thiazolidine | IC50 [5]: > 3000 µM
Structure (SMILES): NC(=O)CCC(N)C(=O)N1CCSC1 (centres unmarked) [Gln-Thia, glutaminyl thiazolidine]

Structure (SMILES): CC[C@H](C)[C@H](N)C(=O)N1CCSC1 [Isoleucyl thiazolidine fumarate]
fasting blood glucose [6]: dramatic reduction and almost normalization | systolic blood pressure [7]: stabilization | blood pressure (F344 rats): dose-dependently reduced | number of circulating half-lives equivalent to the 18 hours fasting period (Circulating half-life): ~12 circulating half-lives
